# Results: patent US3948928A, “3-Substituted-1,2-benzisoxazoles and pharmaceutically acceptable acid addition salts thereof” (Dainippon Pharmaceutical Co., Ltd., priority 1972, dated 1976)
# Structures can show the parent of a compound that is named as a salt.
# What was measured:
# [1] = system: renal hypertensive rats; assay: Anti-hypertensive activity in renal hypertensive rats (plethysmographic tail blood pressure); format: in vivo, male Wistar rats
# Description: Male Wistar rats weighing 180 to 200 g and having a blood pressure of 125 to 145 mmHg were anesthetized with ether and the left abdominal wall of rats was cut and thereby the renal artery was laid bare. The origin part of the aorta was stripped off and to the renal artery was fixed a silver clip which was made by two-folding at interval of 0.2 mm a silver thin board having 2.0 mm in width, 6.0 mm in length and 0.3 mm in thickness, and then the abdominal wall was stitched. At 2 months after the operation, the blood pressure of the rats was increased to 150 or more mmHg. The rats thus treated were used in the test as the renal hypertensive rats.
# The blood pressure was measured before the administration of test compounds and at 0.5, 1, 3, 5, 7, 9 and 24 hours after the administration of the test compounds.
# [2] = system: hypothermy induced by reserpine; assay: Anti-reserpine activity: antagonism against the hypothermy induced by reserpine; format: in vivo, male dd YS-mice; details: 100 mg/kg orally; for Inhibition (%): reserpine 5 mg/kg i.p. simultaneously, rectal temperature at 4 hours; for Ratio to AMT: inhibition relative to amitriptyline (AMT)
# Description: The anti-reserpine activity of the test compounds was studied by the antagonism against the hypothermy induced by reserpine on male dd YS-mice, weighing 18 to 20 g, each group being 5 mice. The test compounds were orally administered in a dose of 100 mg/kg and simultaneously reserpine was intraperitoneally administered in a dose of 5 mg/kg to the mice. The body temperature was measured on the rectal temperature of the mice at 4 hours after the administration of the test compounds by thermister BMG III-130, made by Shibaura Electric Co., Ltd.
# [3] = system: 1-dopa potentiating activity; assay: 1-Dopa potentiating activity (mortality of mice given 1-dopa); format: in vivo, dd YS-mice; details: one hour before 1-dopa 300 mg/kg i.p.
# Description: To dd YS-mice, weighing 18 to 20 g (each group being 10 mice) was intraperitoneally administered 300 mg/kg of 1-dopa: 3-(3,4-dihydroxyphenyl)-L-alanine. The mice were entered into a plastic cage having 15 × 15 cm^2 in size and allowed to live gregariously and then the symptom of the mice was observed. The test compounds were orally administered to the mice at one hour before the administration of 1-dopa. The activity of the test compounds was calculated by the mortality.
# [4] = system: spontaneously hypertensive rats; assay: Anti-hypertensive activity in spontaneously hypertensive rats; format: in vivo, male Wistar rats
# Description: The blood pressure was measured by plethysmographic method, in which the blood pressure was measured indirectly by using a tail of animal without anesthesia. That is, after being warmed at 38°C for 10 minutes, a tail of rat was pressed by cuff and then the pressure was relieved and thereby the blood flow started again to increase the volume of tail. The blood pressure at that time was measured.
# Spontaneously hypertensive rats were prepared by using male Wistar rats weighing 300 to 350 g and being 20 or more weeks of age. […] The blood pressure in rats was measured at 0.5, 1, 3, 5, 7, 24 and 30 hours after the administration of the test compounds in the same manner as described in Test 3, (B).
Compound,Blood pressure Decrease percent ([1]; 100 mg/kg p.o.),Blood pressure Duration ([1]; 100 mg/kg p.o.),Blood pressure Peak time ([1]; 100 mg/kg p.o.),Inhibition (%) [2],Ratio to AMT [2],further results
"6,7-dimethoxy-1,2-benzisoxazole-3-acetamidoxime hydrochloride [Example 7]",21.0%,72 h,5 h,–,–,–
"COc1ccc2c(CC(N)=NO)noc2c1.Cl [Test compound 5 (Table 1), 6-Methoxy-1,2-benzisoxazole-3-acetamidoxime hydrochloride]",–,–,–,69.2%,1.42,–
"CN(C)CCC=C1c2ccccc2CCc2ccccc21 [Amitriptyline, 3-(10,11-Dihydro-5H-dibenzo[a,d]-cyclohepten-5-ylidene)-N,N-dimethylpropylamine, reference compound]",–,–,–,48.9%,–,–
"NC(Cc1noc2ccccc12)=NOC(=O)c1ccccc1 [Test compound 3 (Table 1), O-Benzoyl-1,2-benzisoxazole-3-acetamidoxime]",–,–,–,57.1%,1.17,–
"NC12CC3CC(CC(C3)C1)C2 [Amantadine, 1-aminoadamantane, reference compound]",–,–,–,–,–,Number of dead mice/number of used mice ([3]; dose 100 mg/kg orally): 0/10; Number of dead mice/number of used mice ([3]; dose 200 mg/kg orally): 3/10; Number of dead mice/number of used mice ([3]; dose 300 mg/kg orally): 5/10
"Cl.Fc1ccc2onc(CC3=NCCN3)c2c1 [Test compound 4 (Table 4), 5-Fluoro-3-(2-imidazolin-2-yl)methyl-1,2-benzisoxazole hydrochloride]",–,–,–,–,–,Blood pressure Decrease percent ([4]; 10 mg/kg p.o.): 28%; Blood pressure Duration ([4]; 10 mg/kg p.o.): 30 h; Blood pressure Peak time ([4]; 10 mg/kg p.o.): 7.0 h
"Cl.NC(Cc1noc2ccc(F)cc12)=NO [Test compound 3 (Table 4), 5-Fluoro-1,2-benzisoxazole-3-acetamidoxime hydrochloride]",–,–,–,–,–,Blood pressure Decrease percent ([4]; 1 mg/kg p.o.): 20%; Blood pressure Duration ([4]; 1 mg/kg p.o.): 24 h; Blood pressure Peak time ([4]; 1 mg/kg p.o.): 7 to 8 h; Blood pressure Decrease percent ([4]; 10 mg/kg p.o.): 22%; Blood pressure Duration ([4]; 10 mg/kg p.o.): 24 h; Blood pressure Peak time ([4]; 10 mg/kg p.o.): 7.0 h
"Cl.NC(CCc1noc2ccccc12)=NO [Test compound 6 (Table 1), 1,2-Benzisoxazole-3-propionamidoxime hydrochloride]",–,–,–,58.1%,1.12,–
"1,2-Benzisoxazole-3-acetamidoxime [Example 1]",–,–,–,66.9%,1.37,Number of dead mice/number of used mice ([3]; dose 20 mg/kg orally): 1/10; Number of dead mice/number of used mice ([3]; dose 50 mg/kg orally): 3/10; Number of dead mice/number of used mice ([3]; dose 100 mg/kg orally): 7/10; Blood pressure Decrease percent ([1]; 3 mg/kg p.o.): 18.2%; Blood pressure Duration ([1]; 3 mg/kg p.o.): 24 h; Blood pressure Peak time ([1]; 3 mg/kg p.o.): 7 h; Blood pressure Decrease percent ([1]; 10 mg/kg p.o.): 36.3%; Blood pressure Duration ([1]; 10 mg/kg p.o.): 30 h; Blood pressure Peak time ([1]; 10 mg/kg p.o.): 7 h; Blood pressure Decrease percent ([1]; 30 mg/kg p.o.): 38.8%; Blood pressure Duration ([1]; 30 mg/kg p.o.): 48 h; Blood pressure Peak time ([1]; 30 mg/kg p.o.): 3 h; Blood pressure Decrease percent ([4]; 10 mg/kg p.o.): 16%; Blood pressure Duration ([4]; 10 mg/kg p.o.): 24 h; Blood pressure Peak time ([4]; 10 mg/kg p.o.): 5.0 h
"Cc1cccc2c(CC3=NCCN3)noc12.Cl [Test compound 4 (Table 1), 7-Methyl-3-(2-imidazolin-2-yl)methyl-1,2-benzisoxazole hydrochloride]",–,–,–,51.9%,1.06,–
"N=C(Cc1noc2ccccc12)N1CCN(c2ccccc2)CC1 [Test compound 4 (Table 3), 1-Phenyl-4-(1,2-benzisoxazole-3-acetimidoyl)piperazine hydrochloride]",10.7%,30 h,3 h,–,–,–
"Cl.N=C(Cc1noc2ccccc12)NN [Test compound 3 (Table 3), 1,2-Benzisoxazole-3-acetamidrazone hydrochloride]",19.0%,24 h,7 h,–,–,–
"Cl.N=C(N)Cc1noc2ccccc12 [Test compound 2 (Table 3), 1,2-Benzisoxazole-3-acetamidine hydrochloride]",34.4%,30 h,1 to 3 h,–,–,–
"Cl.NC(Cc1noc2ccccc12)=NO [Test compound 2 (Table 1), 1,2-Benzisoxazole-3-acetamidoxime hydrochloride]",–,–,–,64.9%,1.33,–
"Cl.Oc1ccc2c(CC3=NCCN3)noc2c1 [Test compound 7 (Table 3), 6-Hydroxy-3-(2-imidazolin-2-yl)methyl-1,2-benzisoxazole hydrochloride]",–,–,–,–,–,Blood pressure Decrease percent ([4]; 10 mg/kg p.o.): 14%; Blood pressure Duration ([4]; 10 mg/kg p.o.): 9 h; Blood pressure Peak time ([4]; 10 mg/kg p.o.): 7.0 h
"Cl.Oc1ccc2onc(CC3=NCCN3)c2c1 [Test compound 6 (Table 3), 5-Hydroxy-3-(2-imidazolin-2-yl)methyl-1,2-benzisoxazole hydrochloride]",56.5%,30 h,5 h,–,–,–
"CNC(=N)Cc1noc2ccccc12 [Test compound 5 (Table 3), 1,2-Benzisoxazole-3-(N-methyl)acetamidine hydrochloride]",19.3%,24 h,3 h,–,–,–
